Reference: publication PMC11855866 (International Journal of Molecular Sciences, 2025)
≈ marks a conversion by molar mass, not a printed value. Where two headings read alike, the source gives them in different places.

Tests used:
4T1 tumors = assay: 4T1 breast cancer in BALB/c mice; type: in vivo; details: GLIM alone 4 mg/kg i.p.
Procedure: Six- to eight-week-old female BALB/c mice (Charles River Breeding Laboratories, Wilmington, MA, USA) were bred at the Maria Sklodowska-Curie National Research Institute of Oncology, Gliwice Branch (Gliwice, Poland), under a HEPA-filtered Allentown's IVC System (Allentown Caging Equipment Co., Allentown, NJ, USA). All efforts to minimize animal suffering were made by qualified personnel. This study was carried out in strict accordance with the recommendations in the Guide for the Care and Use of Laboratory Animals of the National Institutes of Health. The protocols were approved by the Committee on the Ethics of Animal Experiments of the Local Ethics Commission (Medical University of […], Poland; Permit No. 22/2024). BALB/c mice were injected subcutaneously in the lower flank with 2 × 10^5 4T1 cells suspended in 100 μL PBS. […] Each treatment was administered a total of five times.

HSA = test system: HSA; design: method as in Figure S2 [39–71]; details: ref Figure S2 [39–71]; cited from earlier work
[1] = test system: 4T1 breast cancer and B16F10 melanoma xenografts; details: 4T1, B16F10 xenografts, MMTV-PyMT; cited from earlier work
MCF-7 cells = details: cited from earlier work
A549 cells [2] = assay: MTT cytotoxicity / synergy assay, 72 h, A549; details: Homo sapiens, A549, 72 h, read-out: IC50 Value in Specific Cell Line, A549, MTT, 72 h; n.d. = IC50 not achieved within concentrations tested
Procedure: (§2) The synergistic effects of drug combinations were studied in various cancer cell lines, including MCF-7 (human breast cancer), A549 (human lung cancer), U-87 MG (human malignant glioma), HepG2 (human liver cancer), and HUH7 (human liver cancer). HMEC-1, an immortalized human microvascular endothelial cell line, was used as a model for normal cells. All cell lines were purchased from ATCC (Rockville, MD, USA).
(§3) The cancer cell lines were cultured in Dulbecco’s Modified Eagle’s Medium (DMEM; Sigma-Aldrich) supplemented with 10% FBS and 1% penicillin/streptomycin mixture (10,000 U/mL penicillin and 10 mg/mL streptomycin; Sigma-Aldrich) at 37 °C in a humidified atmosphere with 5% CO2.
(§4) For the MTT assay, exponentially growing cells were seeded into 96-well plates at a density of 5 × 10³ cells per well. After 24 h of incubation, the medium was replaced with 100 µL of fresh medium containing the tested compounds. After 72 h of treatment, cell viability was assessed using the MTT assay as described earlier. […] IC50 values were calculated using GraphPad Prism 9 software (GraphPad Software).

[3] = Analysis of drug solubility (Cobs by HPLC); type: physicochemical
Procedure: The drug content in the samples was determined using a previously described HPLC method. The analysis was performed on an Ultimate 3000 HPLC system (Dionex Co., Germering, Germany), equipped with a UV–Vis detector and a TSKgel ODS-100V column (particle size: 5 µm; dimensions: 4.6 mm i.d. × 15 cm; Tosoh Co., Tokyo, Japan). The mobile phase consisted of MeCN and 20 mM KH2PO4 buffer (pH 3.0) in an appropriate ratio. The flow rate was maintained at 1.0 mL/min, with the column temperature set to 30 °C. All compounds were detected at 228 nm.
Some samples included 0.05% (v/v) Tween-80. For experiments involving BSA, a separate solution was prepared by dissolving 4.5 mg/mL of BSA (cat. #422381B, VWR) in the same PBS (pH 7.4), with or without 0.05% (v/v) Tween-80. All samples were incubated at 37 °C with shaking for 24 h. After incubation, the samples were either centrifuged at 13,500 rpm (RCF = 12,225 g) for 15 min using a Micro Star 12 microcentrifuge (VWR), and 150 µL of the supernatant was collected for HPLC analysis, or filtered using 0.22 µm PVDF syringe filters (13 mm i.d., cat. #514-1251, VWR) or AcroPrep™ Advance 96-well filter plates (Pall Corporation, Dreieich, Germany) with various molecular weight cut-offs.

multiple cell lines = test system: multiple cell lines; design: method as in Alkhalil et al. and others [10,11,16,26]; details: range reported; ref Alkhalil et al. and others [10,11,16,26]; read-out: cytotoxicity (IC50 range over cell lines), literature; cited from earlier work
[4] = design: method as in Figure S2 [39–71]; details: ref Figure S2 [39–71]; cited from earlier work
[5] = test system: A549, HepG2, MCF-7, and U-87MG; assay: Doxorubicin accumulation assay, sensitive cell lines; type: cell-based, human
Procedure: (§1) Cells were seeded at a density of 2 × 10^4 cells per well in black 96-well plates as described in Section 3.6.

[6] = cited from earlier work
HepG2 cells = assay: MTT cytotoxicity / synergy assay, 72 h, HepG2; details: Homo sapiens, HepG2, 72 h, read-out: IC50 Value in Specific Cell Line, HepG2, MTT, 72 h; n.d. = IC50 not achieved within concentrations tested
Procedure: as §2, §3, §4

A549 cells [7] = assay: Doxorubicin accumulation assay, A549; type: cell-based, human; details: 50 µM DOXO and 1.56 µM GLIM, 3 h
Procedure: as §1

HuH7 cells = assay: MTT cytotoxicity / synergy assay, 72 h, HuH7; details: Homo sapiens, Huh-7, 72 h, read-out: IC50 Value in Specific Cell Line, HuH7
Procedure: as §2, §3, §4

[8] = MTT cytotoxicity, range over the cell panel; type: cell-based; details: human; range over the tested cell lines; read-out: cytotoxicity (IC50 range over cell lines), our study
Procedure: HMEC-1, an immortalized human microvascular endothelial cell line, was used as a model for normal cells.
as §3, §4

CT26 colon cancer model = test system: CT26 colon cancer model; design: method as in PMID 36033393; details: GLIM 5 mg/kg every 2 days, i.p.; cited from earlier work
MC38 model = test system: MC38 model; design: method as in PMID 36033393; details: GLIM 5 mg/kg every 2 days, i.p.; cited from earlier work
MC38 melanoma model = test system: MC38 melanoma model; design: method as in PMID 36033393; details: GLIM 5 mg/kg every 2 days, i.p.; cited from earlier work
[9] = cited from earlier work; remark: listed apart in the source

## CCC1=C(C)CN(C(=O)NCCc2ccc(S(=O)(=O)NC(=O)N[C@H]3CC[C@H](C)CC3)cc2)C1=O [GLIM, Glimepiride]
4T1 tumors
  body weight compared to controls: no significant change in body weight
  tumor size compared to untreated controls: no reduction in tumor size
HSA
  nKa (global affinity constant, HSA): 910000 M⁻¹
[1]
  effect on tumor growth and metastasis: no effect
MCF-7 cells; calculated by the authors from the results of Faridi et al., read-out: IC50 value, MCF-7
  IC50: 79.8 µM
MCF-7 cells; read-out: IC50, MCF-7
  IC50: 50 µM
A549 cells [2]
  IC50: 353 µM
[3]; GLIM only in PBS pH 7.4, 37 °C, 24 h, centrifugation
  concentration up to which Cobs matches the expected concentration: up to 100 µM
[3]; GLIM only, 0.22 µm syringe filters, all tested samples
  observed concentration (Cobs): 8.6 to 16.6 µM
[3]; PBS, pH 7.4, aqueous buffer, read-out: observed concentration (Cobs) above the threshold
  solubility kinetic at 24 h: ~5 µM (≈ 2.45 µg/mL)
Multiple cell lines
  IC50: 89.4 to 426 µM
[4]
  solubility: 12.2 µM (≈ 5.99 µg/mL)
[5]
  increase of DOXO levels: up to 2.3 times
[6]
  protein-bound in plasma: 99.4%
HepG2 cells
  IC50: 177 µM
A549 cells [7]
  increase in DOXO level compared to DOXO monotherapy: 227%
HuH7 cells
  IC50: 476 ± 7 µM
[8]
  IC50 at 72 h: 135 to 473 µM
CT26 colon cancer model
  increase in CD8+ T cell infiltration: about 100%
  reduction of tumor mass: 45%
MC38 model
  increase in CD8+ T cell numbers: < 10%
MC38 melanoma model
  reduction of tumor mass: 57%
[9]
  logP: 3.81
